Results as given in patent US7652050B2, “Methods for increasing the survival of aquatic animals infected with an aquatic virus” (Laboratorio de Siagnóstico GAM S.A, priority 2001, dated 2010).
In brackets after ≈: the same amount, converted by molar mass. Entries after “also recorded” stand apart in the source; their conditions may differ. Like-named read-outs stand apart in the source and are kept apart here.

How the values were obtained:
IPNV strain VR-299 [1] = assay: Virus plaque inhibition assay; format: cell-based; details: Infectious pancreatic necrosis virus, CHSE-214, 72 h, read-out: EC50, effective antiviral concentration required to inhibit IPNV plaque formation by 50%
in vitro = details: Chinook salmon
IPNV strain VR-299 [2] = details: cited from earlier work
IPNV [3] = details: cited from earlier work
IPNV genomic RNA = format: cell-based, infectious pancreatic necrosis virus (IPNV)
IPNV particles = format: cell-based, infectious pancreatic necrosis virus (IPNV); details: acivicin 25 and 70 μg/ml, 24 and 48 h.p.i.
IPNV [4] = assay: Modified viral plaque inhibition assay with pre-incubation of virus (virus cell entry); format: cell-based, infectious pancreatic necrosis virus (IPNV); details: for EC50: Infectious pancreatic necrosis virus
Experimental: Compounds derived from isoxazol are assayed for their ability to inhibit viral entry into the cell. To determine if acivicin blocks the entry of IPNV, a modified viral plaque inhibition assay was conducted. […] Control viral samples were not pre-incubated with acivicin. […] Overnight incubation of the virus in acivicin increased the ability of the isoxazol compound to inhibit viral plaques by 38 percent.

IPNV [5] = assay: Survival of IPNV-infected Atlantic salmon fry treated with acivicin by immersion; format: in vivo
[6] = Uninfected Atlantic salmon fry treated with acivicin (toxicity control); format: in vivo; details: uninfected fish treated with 14 μg/ml acivicin
Experimental: Starting nine days post-infection (day 9), surviving fish are divided into four groups of forty fish each and treated with 0, 7.0, 10.8, or 14.0 μg/ml of acivicin by immersion in a 2 hour daily bath containing […]. One group corresponded to untreated fish, and the other three groups corresponded to fish groups treated with different concentrations of acivicin. As a negative control, there were two groups of 40 healthy fish in each; one group corresponded to an uninfected fry administered 14 μg/ml of acivicin while the other group was not infected or administered acivicin. Daily treatment in acivicin continued through day 21 post-infection (day 21). The fish were followed for 36 days post-infection to detect and document mortality.

IPNV [7] = assay: Survival of naturally infected rainbow trout fry treated with acivicin; format: in vivo, rainbow trout (Onchorhynchus mykiss)
Experimental: FIG. 4 is a graph showing the effect of acivicin treatment on the survival of rainbow trout fry naturally infection with IPNV. The fish were followed for 30 days starting at day one of the acivicin treatments, to detect and document deaths. The data are presented in terms of percent survival: • ●---●: untreated naturally infected fish, positive control. • σ--σ: naturally infected fish treated with 9 μg/ml of Acivicin.
Acivicin was tested in vivo on thirty rainbow trout (Onchorhynchus mykiss). […] The fish were followed for 30 days following the first day of the acivicin treatments. Deaths were documented and presented in terms of percent survival. Results from methods assessing the effect of acivicin treatment on the survival of the trout fry naturally infected are shown in the graph at FIG. 4. Thirty days after the acivicin administration began, 90% of the trout fry had survived , while only 30% of the untreated control group had survived the same 30 day period. […] By contrast, in the untreated fish group, deaths continued during the first 25 days of the observation period.

Stability in solution = format: physicochemical
reovirus = details: Balb/c cells; Keast et al. (1992); cited from earlier work
IPNV [8] = assay: Survival of IPNV-infected Atlantic salmon fry treated with neomycin by immersion; details: neomycin 10, 40 and 80 ppm, 1 hour daily bath through day 23
IPNV [9] = details: at 100 to 300 μg/ml; cited from earlier work
[10] = acivicin 25 and 70 μg/ml, 24 and 48 h.p.i.

COc1c(C)c2c(c(O)c1C/C=C(\C)CCC(=O)O)C(=O)OC2 [Myconhenolic Acid, 6-(4-hydroxy-6-methoxy-7-methyl-3-oxo-5-phthalanyl)-4-methyl-4-hexenoic acid]
EC50 (IPNV strain VR-299 [1]): 0.5 µg/mL (≈ 1.56 µM) | CC50 at 3 days (in vitro): > 50 µg/mL

NC(=O)c1ncn([C@@H]2O[C@H](CO)[C@@H](O)[C@H]2O)n1 [Ribavirin]
Inhibition of IPNV replication in vitro (IPNV strain VR-299 [2]; Migus et al. (1980)): inhibit IPNV replication in vitro; also recorded: efficiently inhibits IPNV replication in vitro | Efficacy against IPNV in vivo (IPNV [3]; Migus et al. (1980), Savan et al. (1980)): no efficacy in vivo

N[C@H](C(=O)O)[C@@H]1CC(Cl)=NO1 [Acivicin, L (alpha S, 5S)-alpha-amino-3-chloro-4.5-dihydro-5-isoxazolacetic acid]
Effect on IPNV genomic RNA synthesis (IPNV genomic RNA; [10]): did not inhibit | Effect on IPNV particle formation (IPNV particles): inhibits the formation of IPNV viral particles | EC50, virus samples pre-incubated 2 hours, versus not pre-incubated (IPNV [4]; 2 hours pre-incubation): not significantly different | EC50 (IPNV [4]; no pre-incubation, read-out: EC50, virus samples without pre-incubation): 4 µg/mL (≈ 22.4 µM) | EC50 (IPNV [4]; pre-incubation with 1 to 6 μg/ml acivicin overnight, read-out: EC50, virus samples pre-incubated overnight with acivicin): 2.5 µg/mL | Deaths after acivicin treatments were terminated (IPNV [5]; days 21-36, all three treated groups, untreated infected deaths reached 54 percent): no deaths observed | Day post-treatment by which deaths stopped completely (IPNV [5]; each of the treated groups, treatment began day 9 post-infection): ≤ 10 day post-treatment | Mortality rate (accumulated deaths) (IPNV [5]; infected fish, 7.0 μg/ml acivicin, 2 hour daily bath from day 9 to 21 post-infection, untreated infected 30%): 30% | Survival (IPNV [5]; infected fish, 10.5 μg/ml acivicin): 92% | Accumulated deaths (IPNV [5]; infected fish, 10.5 μg/ml acivicin, 2 hour daily bath from day 9 to 21 post-infection): 8% | Survival (IPNV [5]; infected fish, 14 μg/ml acivicin): 89% | Mortality (IPNV [5]; infected fish, 14 μg/ml acivicin, 2 hour daily bath from day 9 to 21 post-infection): 11% | Toxicity in fish [6]: not toxic in fish | Day of treatment by which all deaths occurred (IPNV [7]; 9 μg/ml acivicin, 15 day protocol, untreated deaths continued 25 days): ≤ 12 days | Survival thirty days after administration began (IPNV [7]; fry 1.0±0.4 g, 9 μg/ml acivicin, daily bath of two hours, 15 days, untreated control 30%): 90% | Survival (IPNV [7]; fry of approximately 0.8 g, treated 12 days with 9 μg/ml acivicin): 98% | Stability in solution (Stability in solution): stable in solution | Concentration inhibiting reovirus replication (reovirus): 0.1 µg/mL | CC50 (in vitro): > 100 µg/mL | Effect on IPNV polypeptide synthesis (IPNV polypeptides; [10]): did not inhibit

neomycin
Effect on IPNV genomic RNA synthesis (IPNV genomic RNA; neomycin 4 mg/ml added 1, 3, 5, 7 h.p.i., harvest 24 h.p.i.): inhibited the IPNV RNA synthesis | Mortality outbreak, treatment from day thirteen post-infection (IPNV [8]): stop the mortality outbreak immediately | Mortality outbreak, treatment from day thirteen post-infection (IPNV [8]; listed as neomycin): stopped dying immediately | Effect on IPNV polypeptide synthesis (IPNV polypeptides; neomycin 4 mg/ml added 1, 3, 5, 7 h.p.i., 24 h.p.i.): does not inhibit IPNV polypeptide synthesis

Nc1ncnc2c1ncn2C[C@H](O)CO [DHPA, (S)-9-(2.3-dihydroxypropyl) adenine]
Cytotoxicity in RTG-2 cells (IPNV [9]): without presenting cytotoxicity

C#Cc1c(C(N)=O)ncn1[C@@H]1O[C@H](CO)[C@@H](O)[C@H]1O [EICAR, 5-ethynyl-1-β-ribofuranosylimidazole-carboxamide]
EC50 for IPNV (IPNV strain VR-299 [2]; Jashés et al., Antiviral Res. 29:309 (1996)): 0.01 µg/mL | Deaths among experimentally IPNV-infected fry (IPNV [3]; rainbow trout and Coho salmon fry, given first day after infection, Moya et al. (2000)): fewer deaths occurred among the infected fry

Nc1ncnc2c1ncn2CC(O)C(=O)O (centres unmarked) [AHPA, 3-adenine-9-yl-2-hydroxypropanoic acid]
CC50 at 3 days (in vitro): 75 µg/mL (≈ 336 µM)
